Measurements as given in patent US20140357512A1, “HISTONE DEACETYLASE (HDAC) BIOMARKERS IN MULTIPLE MYELOMA” (priority 2013, published 2014).

Test system: human myeloma cell line MM.1S
Test: SILAC acetylated-lysine peptide profiling, HDAC inhibitor vs DMSO (light/heavy ratio)
Format: cell-based
Excerpt: An embodiment of the invention comprises utilizing the SILAC method in order to quantitate changes in protein expression between two or more populations of cells. The SILAC method is a technique based on mass spectrometry that detects differences in protein abundance among samples using non-radioactive isotopic labeling. The SILAC method is known in the art, and described in detail in Ong et al., “Stable Isotope Labeling by Amino Acids in Cell Culture, SILAC, as a Simple and Accurate Approach to Expression Proteomics”, Molecular & Cellular Proteomics, vol. 1, pp. 376-386 (2002), which is incorporated herein by reference in its entirety.
Briefly, the SILAC method involves growing two populations of cells in cell culture. The first population of cells is grown in growth media containing normal amino acids (“normal media”). The second population of cells is grown in media lacking a standard essential amino acid (such as lysine), but is then supplemented with a non-radioactive, isotopically labeled form of that essential amino acid (such as lysine labeled with ^13C atoms, rather than normal ^12C atoms), which is called “heavy media”. When the two populations of cells are each growing in the medium, they incorporate the amino acids into all of their proteins. The growth of cells maintained in the heavy media is no different from that in normal media. All peptides containing the heavy amino acids are heavier than their normal counterparts. The cells from each of the two populations of cells are lysed. The lysates from each of the two cell populations are then combined. The combined cell lysates are then analyzed by mass spectrometry. Pairs of chemically identical peptides of different stable isotope composition can be differentiated in a mass spectrometer due to their difference in mass. The ratio of peak intensities in the mass spectrum for such peptide pairs reflects the abundance ratio for the two proteins.
This example describes SILAC studies that were performed to compare the effects of three different HDAC inhibitors (Compound A, Compound B, and tubastatin A) to a control on a human multiple myeloma cell line. The HDAC inhibitors were also compared amongst themselves to determine differences in their effects.
A human myeloma cell line MM.1S was grown using either ^12C (light) or ^13C (heavy) lysine containing culture medium. The “heavy” cells were treated with DMSO as the control, and the “light” cells were treated with a single HDAC inhibitor at 37° C. for 6 hours. The heavy and light cells were lysed, and the lysates were mixed in 1:1 ratio and digested with the protease trypsin. The acetylated lysine containing peptides (due to the action of the HDAC inhibitor) in the digested peptide pool were captured by a non-specific anti-acetylated lysine antibody cocktail (the antibodies identify both light and heavy acetylated peptides), and subjected to mass spectrometry analysis in order to identify thousands of individual peptides.
Thousands of peptides were identified in pairs (^12C and ^13C) due to their known mass differences. The amino acid sequence and quantitative ratio (Light/Heavy) of a given peptide in two differentially treated cell lysates were then determined and annotated with their possible protein (gene) sources.
As stated above, three HDAC inhibitors (Compound A, Compound B, and Tubastatin A) were used. Thus, the SILAC method was performed three times, with a different HDAC inhibitor compared to a control each time. Accordingly, there are three pairs of quantitative data in the table below, i.e., Compound A:DMSO, Compound B:DMSO, and Tubastatin A:DMSO. A cut-off of 1.30 fold of change (increase or decrease) was then used to determine “changed” or “+” in the table, and any peptides with a fold of change less than 1.3 fold were determined to be “unchanged” or “0” in the table. Those peptides that were not identified were marked as “NA” in the table. […]

O=C(NO)c1cnc(NC2(c3cccc(F)c3)CCCCC2)nc1 [Compound B, 2-((1-(3-fluorophenyl)cyclohexyl)amino)-N-hydroxypyrimidine-5-carboxamide]
light to heavy ratio (L/H ratio) of acetylated peptide TNFSNEK(ac)TISK (SEQ ID NO: 357) (Acylphosphatase-2 [113], ACYP2, drug:DMSO): 0.84 log 2 | light to heavy ratio (L/H ratio), log 2 scale, acetylated peptide SELTGK(ac)FEK (SEQ ID NO: 778) (Annexin A5 [76], gene ANXA5, drug:DMSO): 0.00 | light to heavy ratio (L/H ratio) of acetylated peptide TKYEK(ac)SLYSMIK (SEQ ID NO: 270) (Annexin A6 [299], ANXA6, drug:DMSO): 0.00 log 2 | light to heavy ratio (L/H ratio) of acetylated peptide AINEAYK(ac)EDYHK (SEQ ID NO: 282) (Annexin A6 [478], ANXA6, drug:DMSO): 0.00 log 2 | light to heavy ratio (L/H ratio) of acetylated peptide NKPLFFADK(ac)LYK (SEQ ID NO: 298) (Annexin A6 [607], ANXA6, drug:DMSO): 0.00 log 2 | light to heavy ratio (L/H ratio) of acetylated peptide GAGTDEK(ac)TLTR (SEQ ID NO: 621) (Annexin A6 [620], gene ANXA6, inhibitor:DMSO): 0.00 log 2 | light to heavy ratio (L/H ratio), log 2 scale, acetylated peptide EFIEK(ac)YDK (SEQ ID NO: 779) (Annexin A6 [644], gene ANXA6, drug:DMSO): 0.00 | light to heavy ratio (L/H ratio) of acetylated peptide DDNGK(ac)PYVLPSVR (SEQ ID NO: 579) (Aspartate aminotransferase mitochondrial [73], gene GOT2, inhibitor:DMSO): 0.00 log 2 | light to heavy ratio (L/H ratio) of acetylated peptide LVGELK(ac)LDR (SEQ ID NO: 367) (Bactericidal/permeability-increasing protein [237], BPI, drug:DMSO): −0.52 log 2 | light to heavy ratio (L/H ratio) of acetylated peptide ELK(ac)EIQYGIR (SEQ ID NO: 540) (Branched-chain-amino-acid aminotransferase [337], gene BCAT2, inhibitor:DMSO): 0.00 log 2 | L/H ratio of acetylated peptide FYGDEEK(ac)[…] (SEQ ID NO: 25) (CALR [62], log 2 scale, drug vs DMSO): 0.00 | light to heavy ratio (L/H ratio) of acetylated peptide AGLQVYNK(ac)CWK (SEQ ID NO: 260) (CD59 glycoprotein [63], CD59, drug:DMSO): 0.00 log 2 | L/H ratio of acetylated peptide (CHAFEK(ac)[…] (SEQ ID NO: 425), NADH dehydrogenase [ubiquinone] iron-sulfur protein 5 [38], NDUFS5): −0.63 log 2 | L/H ratio of acetylated peptide […](ac)R (SEQ ID NO: 26) (CLTC [637], log 2 scale, drug vs DMSO): 0.00 | L/H ratio of acetylated peptide FK(ac)ESFAEMNR (SEQ ID NO: 1) (COX4I1 [87], log 2 scale, drug vs DMSO): −0.67 | L/H ratio of acetylated peptide […](ac)QLCTIPR (SEQ ID NO: 27) (CREBBP [1216], log 2 scale, drug vs DMSO): 0.00 | L/H ratio of acetylated peptide TNK(ac)NK(ac)SSISR (SEQ ID NO: 13) (CREBBP [1595:1597], log 2 scale, drug vs DMSO): 0.62 | L/H ratio of acetylated peptide ALK(ac)DLYCHK (SEQ ID NO: 28) (CREM [240], log 2 scale, drug vs DMSO): 0.00 | L/H ratio of acetylated peptide LYCPK(ac)CMDVYTPK (SEQ ID NO: 29) (CSNK2B [139], log 2 scale, drug vs DMSO): 0.00 | light to heavy ratio (L/H ratio) of acetylated peptide NSFDCFK(ac)K (SEQ ID NO: 605) (Calcium-binding mitochondrial carrier protein Aralar2 [379], gene SLC25A13, inhibitor:DMSO): 0.00 log 2 | light to heavy ratio (L/H ratio) of acetylated peptide FVLSSGK(ac)FYGDEEKDK (SEQ ID NO: 281) (Calreticulin [55], CALR, drug:DMSO): 0.00 log 2 | light to heavy ratio (L/H ratio) of acetylated peptide NVLINK(ac)DIR (SEQ ID NO: 257) (Calreticulin [159], CALR, drug:DMSO): 0.00 log 2 | light to heavy ratio (L/H ratio) of acetylated peptide […](ac)GLLK (SEQ ID NO: 569) (Chloride intracellular channel protein 1 [131], gene CLIC1, inhibitor:DMSO): 0.00 log 2 | light to heavy ratio (L/H ratio) of acetylated peptide SMSTEGLMK(ac)FVDSK (SEQ ID NO: 330) (Citrate synthase mitochondrial [459], CS, drug:DMSO): 0.76 log 2 | light to heavy ratio (L/H ratio), log 2 scale, acetylated peptide MIYASSK(ac)DAIKK (SEQ ID NO: 763) (Cofilin-1 [121], gene CFL1, drug:DMSO): 0.00 | light to heavy ratio (L/H ratio) of acetylated peptide AAEEVEAK(ac)FK (SEQ ID NO: 328) (Coiled-coil-helix-coiled-coil-helix domain-containing protein 3 mitochondrial [173], CHCHD3, drug:DMSO): −0.42 log 2 | light to heavy ratio (L/H ratio) of acetylated peptide ASEIGEK(ac)YR (SEQ ID NO: 586) (Conserved hypothetical protein [484], gene KIAA0947, inhibitor:DMSO): 0.00 log 2 | light to heavy ratio (L/H ratio) of acetylated peptide DHCVAHK(ac)LFNNLK (SEQ ID NO: 608) (Cytochrome b-c1 complex subunit 6 mitochondrial [85], gene UQCRH, inhibitor:DMSO): 0.00 log 2 | light to heavy ratio (L/H ratio) of acetylated peptide YFDEK(ac)IAK (SEQ ID NO: 563) (D-beta-hydroxybutyrate dehydrogenase mitochondrial [280], gene BDH1, inhibitor:DMSO): 0.00 log 2 | L/H ratio of acetylated peptide FK(ac)[…] (SEQ ID NO: 30) (DAZAP1 [59], log 2 scale, drug vs DMSO): 0.00 | L/H ratio of acetylated peptide APTIVGK(ac)SSLNPILFR (SEQ ID NO: 31) (DDOST [189], log 2 scale, drug vs DMSO): 0.00 | L/H ratio of acetylated peptide DWVLNEFK(ac)HGK (SEQ ID NO: 33) (DDX5 [388], log 2 scale, drug vs DMSO): 0.00
